#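 Results reflect a 48-hour exposure of cells in 96-well plates to compound at five concentrations. Abbreviation: GI50, concentration required for 50% inhibition of growth. TGI is the concentration that stops growth completely.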
# Assays:
# Experiment in all cases: NCI anticancer screen, dose series, 48 h
# [1] = tested on: OVCAR-3 ovarian
# [2] = tested on: A498 renal
# [3] = tested on: CAKI-1 renal
# [4] = tested on: SR leukemia
# [5] = tested on: NCI-H522 lung
# [6] = tested on: MDA-MB-231 breast
# [7] = tested on: A549 NSCLC
# [8] = tested on: MOLT-4 leukemia
# [9] = tested on: NCI/ADR-RES ovarian
# [10] = tested on: HCT-116 colon
# [11] = tested on: U251 CNS
# [12] = tested on: UACC-257 melanoma
# [13] = tested on: KM12 colon
# [14] = tested on: SK-OV-3 ovarian
# [15] = tested on: HOP-62 NSCLC
# [16] = tested on: OVCAR-5 ovarian
# [17] = tested on: SW-620 colon
# [18] = tested on: MCF7 breast
# [19] = tested on: OVCAR-4 ovarian
# [20] = tested on: K-562 leukemia
# [21] = tested on: SN12C renal
# [22] = tested on: NCI-H460 lung
# [23] = tested on: SNB-75 CNS
# [24] = tested on: COLO 205 colon
# [25] = tested on: IGROV1 ovarian
# [26] = tested on: MDA-MB-435
# [27] = tested on: UACC-62 melanoma
# [28] = tested on: M14 melanoma
smiles,measurement,setting,value
O=C1OCc2c1cc(F)cc2[N+](=O)[O-],GI50,[1],> 100 µM
same,TGI,[1],> 100 µM
same,GI50,[2],> 100 µM
same,TGI,[2],> 100 µM
same,GI50,[3],> 100 µM
same,TGI,[3],> 100 µM
same,GI50,[4],> 100 µM
same,TGI,[4],> 100 µM
same,GI50,[5],> 100 µM
same,TGI,[5],> 100 µM
same,GI50,[6],> 100 µM
same,TGI,[6],> 100 µM
same,GI50,[7],> 100 µM
same,TGI,[7],> 100 µM
same,GI50,[8],> 100 µM
same,TGI,[8],> 100 µM
same,GI50,[9],> 100 µM
same,TGI,[9],> 100 µM
same,GI50,[10],> 100 µM
same,TGI,[10],> 100 µM
same,GI50,[11],> 100 µM
same,TGI,[11],> 100 µM
same,GI50,[12],> 100 µM
same,TGI,[12],> 100 µM
same,GI50,[13],> 100 µM
same,TGI,[13],> 100 µM
same,GI50,[14],> 100 µM
same,TGI,[14],> 100 µM
same,GI50,[15],> 100 µM
same,TGI,[15],> 100 µM
same,GI50,[16],> 100 µM
same,TGI,[16],> 100 µM
same,GI50,[17],> 100 µM
same,TGI,[17],> 100 µM
same,GI50,[18],> 100 µM
same,TGI,[18],> 100 µM
same,GI50,[19],> 100 µM
same,TGI,[19],> 100 µM
same,GI50,[20],> 100 µM
same,TGI,[20],> 100 µM
same,GI50,[21],> 100 µM
same,TGI,[21],> 100 µM
same,GI50,[22],> 100 µM
same,TGI,[22],> 100 µM
same,GI50,[23],> 100 µM
same,TGI,[23],> 100 µM
same,GI50,[24],47.6 µM
same,TGI,[24],> 100 µM
same,GI50,[25],> 100 µM
same,TGI,[25],> 100 µM
same,GI50,[26],> 100 µM
same,TGI,[26],> 100 µM
same,GI50,[27],> 100 µM
same,TGI,[27],> 100 µM
same,GI50,[28],> 100 µM

# Source: PubChem BioAssay (NCI)
